Key:
Test in all cases: Greenhouse postemergence herbicidal effect, visual injury after 20-22 d
Type in all cases: in vivo
[1] = system: Brassica napus (spring rape); settings: BRSNN
Source text: (§1) Greenhouse Trial Methodology—Evaluation of Postemergence Herbicidal Effect
(§2) Seeds of the desired test plant species were planted in a 90:10% v/v (volume/volume) mixture of PRO-MIX® BX (Premier Tech Horticulture, Quakertown, Pa., USA) and PROFILE® GREENS GRADE™ (Profile Products LLC, Buffalo Grove, Ill., USA) planting mixture, which typically has a pH of 5.2 to 6.2 and an organic matter content of at least 50 percent, in plastic pots with a surface area of 103.2 square centimeters (cm^2). In some aspects, to help ensure good germination and healthy plants, a fungicide treatment and/or other chemical or physical treatment was applied. The plants were grown for 7-36 days (d) in a greenhouse with an approximate 14-hour (h) photoperiod which was maintained at about 23° C. during the day and 22° C. during the night. Nutrients and water were added on a regular basis and supplemental lighting was provided with overhead metal halide 1000-Watt lamps as necessary. The plants were employed for testing when they reached the second or third true leaf stage.
(§3) Emulsifiable concentrates of each of each pyridine carboxylate herbicide (Compound A or Compound B) were prepared at 100 grams acid equivalent per liter (g ae/L). The emulsifiable concentrates also included a safener, at 120 grams active ingredient per liter (g ai/L). An aliquot of each emulsifiable concentrate was placed in a 25 mL glass vial and diluted with an aqueous mixture of 1.25% (v/v) ACTIROB® B esterified rapeseed oil (Bayer Crop Science, Research Triangle Park, N.C., USA) or MSO® Concentrate with LECI-TECH® methylated soybean oil (Loveland Products, Loveland, Colo., USA) to obtain concentrated stock solutions at the highest application rate for each herbicide, based upon a 12 milliliter (mL) application volume at a rate of 187 liters per hectare (L/ha). The concentrated stock solutions were further diluted with an aqueous mixture of 1.25% v/v ACTIROB® B or MSO® Concentrate with LECI-TECH® to obtain stock solutions at reduced application rates for each herbicide. Spray solutions of the herbicide combinations (Compound A or Compound B plus the CBI herbicide) were prepared by adding weighed amounts or aliquots of the CBI herbicide to the stock solutions of Compound A or Compound B to form 12-mL spray solutions in two-way combinations.
(§4) The spray solutions were applied to the plant material with an overhead Mandel track sprayer equipped with 8002E nozzles calibrated to deliver 187 L/ha over an application area of 0.503 square meters (m^2) at a spray height of 18 inches (43 centimeters (cm)) above the average plant canopy. Control plants were sprayed in the same manner with the solvent blank. All pyridine carboxylate herbicide (component a) application rates are given as “g ae/ha” and all CBI herbicide (component b) application rates are given as “g ai/ha.”
(§5) The treated plants and control plants were placed in a greenhouse as described above and watered by sub-irrigation to prevent wash-off of the test compounds. After 20-22 d, the condition of the test plants as compared with that of the control plants was determined visually and scored on a scale of 0 to 100 percent where 0 corresponds to no injury and 100 corresponds to complete kill.

[2] = system: Brassica napus (winter rape); settings: BRSNW
Source text: as §1, §2, §3, §4, §5

[3] = system: Viola tricolor (wild pansy); settings: VIOTR
Source text: as §1, §2, §3, §4, §5

[4] = system: Cirsium arvense (Canadian thistle); settings: CIRAR
Source text: as §1, §2, §3, §4, §5

[5] = system: Polygonum convolvulus (wild buckwheat); settings: POLCO
Source text: as §1, §2, §3, §4, §5

[6] = system: Lolium multiflorum (Italian rye grass); settings: Table 2; LOLMU; Indaziflam 35 g/ha
Source text: as §1, §2, §3, §4, §5

[7] = system: Salsola kali (Russian thistle); settings: SASKR
Source text: as §1, §2, §3, §4, §5

[8] = system: Setaria faberi (giant foxtail); settings: SETFA
Source text: as §1, §2, §3, §4, §5

Kochia scoparia (kochia) = settings: KCHSC
Source text: as §1, §2, §3, §4, §5

[9] = system: Digitaria sanguinalis (large crabgrass); settings: DIGSA
Source text: as §1, §2, §3, §4, §5

[10] = system: Echinochloa crus-galli (barnyard grass); settings: ECHCG
Source text: as §1, §2, §3, §4, §5

[11] = system: Amaranthus retroflexus (pigweed); settings: AMARE
Source text: as §1, §2, §3, §4, §5

[12] = system: Chenopodium album L. (common lambsquarters); settings: CHEAL
Source text: as §1, §2, §3, §4, §5

[13] = system: Matricaria chamomilla (wild chamomile); settings: MATCH
Source text: as §1, §2, §3, §4, §5

[14] = system: Abutilon theophrasti (velvetleaf); settings: ABUTH
Source text: as §1, §2, §3, §4, §5

[15] = system: Ipomoea hederacea (ivyleaf morningglory); settings: IPOHE
Source text: as §1, §2, §3, §4, §5

[16] = system: Sorghum vulgare (grain sorghum); settings: Table 1; SORVU; Isoxaben 50 g/ha
Source text: as §1, §2, §3, §4, §5

[17] = system: Euphorbia heterophylla (poinsettia); settings: Table 1; EPHHL; Isoxaben 50 g/ha
Source text: as §1, §2, §3, §4, §5

[18] = system: Stellaria media (chickweed); settings: Table 1; STEME; Isoxaben 50 g/ha
Source text: as §1, §2, §3, §4, §5

[19] = system: Cyperus esculentus (nutsedge); settings: Table 1; CYPES; Isoxaben 50 g/ha
Source text: as §1, §2, §3, §4, §5

[20] = system: Oryza sativa (common rice); settings: Table 1; ORYSA; Isoxaben 50 g/ha
Source text: as §1, §2, §3, §4, §5

[21] = system: Rumex obtusifolius (broad-leaf dock); settings: Table 1; RUMOB; Isoxaben 50 g/ha
Source text: as §1, §2, §3, §4, §5

[22] = system: Helianthus annuus (common sunflower); settings: Table 1; HELAN; Isoxaben 50 g/ha
Source text: as §1, §2, §3, §4, §5

Glycine max (soybean) = settings: Table 1; GLXMA; Isoxaben 50 g/ha
Source text: as §1, §2, §3, §4, §5

## Cc1ccc2c(c1)[C@H](Nc1nc(N)nc(C(C)F)n1)[C@@H](C)C2 (some centres unmarked) [Indaziflam, indaziflam, reference compound]
[1]; Table 2, Indaziflam 35 g/ha
  Obs % visual injury: 30%
[2]; Table 3, Indaziflam 35 g/ha
  Obs % visual injury: 45%
[2]; Table 3, Indaziflam 70 g/ha
  Obs % visual injury: 45%
[3]; Table 2, Indaziflam 35 g/ha
  Obs % visual injury: 5%
[4]; Table 2, Indaziflam 35 g/ha
  Obs % visual injury: 5%
[5]; Table 2, Indaziflam 35 g/ha
  Obs % visual injury: 10%
[5]; Table 3, Indaziflam 35 g/ha
  Obs % visual injury: 10%
[5]; Table 3, Indaziflam 70 g/ha
  Obs % visual injury: 13%
[6]
  Obs % visual injury: 0%
[7]; Table 3, Indaziflam 35 g/ha
  Obs % visual injury: 55%
[7]; Table 3, Indaziflam 70 g/ha
  Obs % visual injury: 60%
[8]; Table 2, Indaziflam 35 g/ha
  Obs % visual injury: 0%
Kochia scoparia (kochia); Table 2, Indaziflam 35 g/ha
  Obs % visual injury: 40%
Kochia scoparia (kochia); Table 3, Indaziflam 35 g/ha
  Obs % visual injury: 28%
Kochia scoparia (kochia); Table 3, Indaziflam 70 g/ha
  Obs % visual injury: 30%
[9]; Table 2, Indaziflam 35 g/ha
  Obs % visual injury: 0%
[10]; Table 2, Indaziflam 35 g/ha
  Obs % visual injury: 0%
[11]; Table 3, Indaziflam 35 g/ha
  Obs % visual injury: 23%
[11]; Table 3, Indaziflam 70 g/ha
  Obs % visual injury: 33%
[12]; Table 3, Indaziflam 35 g/ha
  Obs % visual injury: 10%
[12]; Table 3, Indaziflam 70 g/ha
  Obs % visual injury: 10%
[13]; Table 3, Indaziflam 35 g/ha
  Obs % visual injury: 13%
[13]; Table 3, Indaziflam 70 g/ha
  Obs % visual injury: 38%
[14]; Table 2, Indaziflam 35 g/ha
  Obs % visual injury: 60%
[15]; Table 2, Indaziflam 35 g/ha
  Obs % visual injury: 10%

## CCC(C)(CC)c1cc(NC(=O)c2c(OC)cccc2OC)on1 [Isoxaben, isoxaben, reference compound]
[1]; Table 1, Isoxaben 50 g/ha
  Obs % visual injury: 55%
[2]; Table 4, Isoxaben 50 g/ha
  Obs % visual injury: 53%
[2]; Table 4, Isoxaben 100 g/ha
  Obs % visual injury: 60%
[16]
  Obs % visual injury: 8%
[17]
  Obs % visual injury: 15%
[18]
  Obs % visual injury: 0%
[3]; Table 1, Isoxaben 50 g/ha
  Obs % visual injury: 0%
[4]; Table 1, Isoxaben 50 g/ha
  Obs % visual injury: 8%
[5]; Table 1, Isoxaben 50 g/ha
  Obs % visual injury: 0%
[5]; Table 4, Isoxaben 50 g/ha
  Obs % visual injury: 0%
[5]; Table 4, Isoxaben 100 g/ha
  Obs % visual injury: 0%
[19]
  Obs % visual injury: 0%
[7]; Table 4, Isoxaben 50 g/ha
  Obs % visual injury: 0%
[7]; Table 4, Isoxaben 100 g/ha
  Obs % visual injury: 5%
[8]; Table 1, Isoxaben 50 g/ha
  Obs % visual injury: 5%
Kochia scoparia (kochia); Table 1, Isoxaben 50 g/ha
  Obs % visual injury: 13%
Kochia scoparia (kochia); Table 4, Isoxaben 50 g/ha
  Obs % visual injury: 5%
Kochia scoparia (kochia); Table 4, Isoxaben 100 g/ha
  Obs % visual injury: 5%
[20]
  Obs % visual injury: 0%
[21]
  Obs % visual injury: 0%
[9]; Table 1, Isoxaben 50 g/ha
  Obs % visual injury: 0%
[22]
  Obs % visual injury: 18%
Glycine max (soybean)
  Obs % visual injury: 0%
[10]; Table 1, Isoxaben 50 g/ha
  Obs % visual injury: 5%
[11]; Table 1, Isoxaben 50 g/ha
  Obs % visual injury: 10%
[11]; Table 4, Isoxaben 50 g/ha
  Obs % visual injury: 20%
[11]; Table 4, Isoxaben 100 g/ha
  Obs % visual injury: 10%
[12]; Table 1, Isoxaben 50 g/ha
  Obs % visual injury: 0%
[12]; Table 4, Isoxaben 50 g/ha
  Obs % visual injury: 0%
[12]; Table 4, Isoxaben 100 g/ha
  Obs % visual injury: 0%
[13]; Table 4, Isoxaben 50 g/ha
  Obs % visual injury: 15%
[13]; Table 4, Isoxaben 100 g/ha
  Obs % visual injury: 15%
[14]; Table 1, Isoxaben 50 g/ha
  Obs % visual injury: 5%
[15]; Table 1, Isoxaben 50 g/ha
  Obs % visual injury: 3%

From patent US20220000110A1, “COMPOSITIONS COMPRISING PYRIDINE CARBOXYLATE HERBICIDES AND CELLULOSE BIOSYNTHESIS INHIBITOR HERBICIDES” (priority 2018, published 2022)
